Assay results taken from the supplement of paper PMC10307832.

Legend:
Assay in all cases: relative viability (nuclei count vs DMSO), 5 days (fraction); higher = more cells survive
Kobe2602 + Trametinib = compound: C1=CC(=CC=C1NC(=S)NNC2=C(C=C(C=C2[N+](=O)[O-])C(F)(F)F)[N+](=O)[O-])F [Kobe2602] + CC(=O)Nc1cccc(-n2c(=O)n(C3CC3)c(=O)c3c(Nc4ccc(I)cc4F)n(C)c(=O)c(C)c32)c1 [Trametinib] (partner 0.02 µM)
How it was run: (§1)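 Relative viability was taken as the ratio of nuclei in treated wells to nuclei in vehicle wells. Lung cancer cell lines in 1536-well plates received compounds by pin tool one day after seeding, either one drug alone or a fixed anchor-drug dose plus five library-drug doses (not always all listed) in √10 steps. Nuclei were counted on 4× images after 5 days of treatment, and values are medians of duplicate plates.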

Zosuquidar + Navitoclax = compound: O[C@@H](COc1cccc2ncccc12)CN1CCN([C@@H]2c3ccccc3[C@@H]3[C@H](c4ccccc42)C3(F)F)CC1 [Zosuquidar] + CC1(C)CCC(c2ccc(Cl)cc2)=C(CN2CCN(c3ccc(C(=O)NS(=O)(=O)c4ccc(N[C@H](CCN5CCOCC5)CSc5ccccc5)c(S(=O)(=O)C(F)(F)F)c4)cc3)CC2)C1 [Navitoclax] (partner 0.5 µM)
How it was run: as §1

Zosuquidar + Phenformin = compound: O[C@@H](COc1cccc2ncccc12)CN1CCN([C@@H]2c3ccccc3[C@@H]3[C@H](c4ccccc42)C3(F)F)CC1 [Zosuquidar] + N=C(N)NC(=N)NCCc1ccccc1 [Phenformin] (partner 250 µM)
How it was run: as §1

Zosuquidar + Olaparib = compound: O[C@@H](COc1cccc2ncccc12)CN1CCN([C@@H]2c3ccccc3[C@@H]3[C@H](c4ccccc42)C3(F)F)CC1 [Zosuquidar] + O=C(c1cc(Cc2n[nH]c(=O)c3ccccc23)ccc1F)N1CCN(C(=O)C2CC2)CC1 [Olaparib] (partner 8 µM)
How it was run: as §1

Row | Cell Line | relative viability (Kobe2602 + Trametinib; first compound 0.2 µM) | relative viability (Kobe2602 + Trametinib; first compound 0.6325 µM) | relative viability (Kobe2602 + Trametinib; first compound 2 µM) | relative viability (Kobe2602 + Trametinib; first compound 6.325 µM) | relative viability (Kobe2602 + Trametinib; first compound 20 µM) | relative viability (Zosuquidar + Navitoclax; first compound 0.01 µM) | relative viability (Zosuquidar + Navitoclax; first compound 0.03162 µM) | relative viability (Zosuquidar + Navitoclax; first compound 0.1 µM) | relative viability (Zosuquidar + Navitoclax; first compound 0.3162 µM) | relative viability (Zosuquidar + Navitoclax; first compound 1 µM) | relative viability (Zosuquidar + Phenformin; first compound 0.01 µM) | relative viability (Zosuquidar + Phenformin; first compound 0.03162 µM) | relative viability (Zosuquidar + Phenformin; first compound 0.1 µM) | relative viability (Zosuquidar + Phenformin; first compound 0.3162 µM) | relative viability (Zosuquidar + Phenformin; first compound 1 µM) | relative viability (Zosuquidar + Olaparib; first compound 0.01 µM) | relative viability (Zosuquidar + Olaparib; first compound 0.03162 µM) | relative viability (Zosuquidar + Olaparib; first compound 0.1 µM) | relative viability (Zosuquidar + Olaparib; first compound 0.3162 µM) | relative viability (Zosuquidar + Olaparib; first compound 1 µM)
1 | LK-2 | 0.839 | 0.856 | 0.744 | 0.631 | 0.852 | 0.989 | 0.931 | 0.875 | 0.954 | 0.847 | 0.413 | 0.412 | 0.549 | 0.67 | 0.475 | 0.542 | 0.891 | 0.597 | 0.752 | 0.852
2 | LOU-NH91 | 0.763 | 0.793 | 0.739 | 0.793 | 0.821 | 0.624 | 0.695 | 0.571 | 0.739 | 0.68 | 0.62 | 0.702 | – | 0.768 | 0.692 | 0.845 | 0.904 | 0.728 | 0.97 | 0.873
3 | LU99A | 0.546 | 0.647 | 0.571 | 0.534 | 0.593 | 0.783 | 0.819 | 0.79 | 0.91 | 0.73 | 0.859 | 0.793 | 0.834 | 0.971 | 0.808 | 0.239 | 0.264 | 0.285 | 0.273 | 0.254
4 | LXF-289 | 0.665 | 0.658 | 0.663 | 0.691 | 0.62 | 0.934 | 0.957 | 0.911 | 0.952 | 1.02 | 0.52 | 0.502 | 0.484 | 0.543 | 0.5 | 1.01 | 1.03 | 1.09 | 1.09 | 1
5 | NCI-H23 | 0.428 | 0.49 | 0.359 | 0.385 | 0.444 | 0.765 | 0.96 | 0.746 | 0.79 | 0.862 | 0.722 | 0.708 | 0.78 | 0.895 | 0.805 | 0.328 | – | 0.362 | 0.319 | 0.336
6 | NCI-H322M | 0.555 | 0.495 | 0.5 | 0.467 | 0.521 | 1.26 | 1.16 | 1.08 | 1.29 | 1.14 | 0.809 | 0.856 | 0.586 | 0.793 | 0.858 | 0.774 | 0.898 | 0.665 | 0.698 | 0.796
7 | NCI-H441 | 0.509 | 0.496 | 0.472 | 0.433 | 0.54 | 0.748 | 0.496 | 0.615 | – | 0.59 | 0.903 | 0.845 | 0.643 | 0.832 | 0.916 | 0.708 | 0.61 | 0.738 | 0.482 | 0.525
8 | NCI-H460 | – | 0.198 | 0.183 | 0.166 | 0.111 | 1.07 | 1.3 | 1.24 | 1.14 | 1.23 | 0.48 | 0.508 | 0.445 | 0.529 | 0.498 | 0.41 | 0.403 | 0.32 | 0.421 | 0.39
9 | NCI-H520 | 0.682 | 0.642 | 0.744 | 0.644 | 0.788 | 1.16 | 1.15 | 0.986 | 1.03 | 1.02 | 0.567 | 0.579 | – | 0.658 | 0.565 | 0.395 | 0.312 | 0.341 | 0.29 | 0.335
10 | NCI-H596 | 0.759 | 0.685 | 0.772 | 0.792 | 0.859 | 1.04 | 1.05 | 0.861 | 0.982 | 0.972 | 0.765 | – | 0.798 | 0.909 | 0.761 | 0.651 | 0.607 | 0.67 | 0.696 | 0.666
11 | NCI-H647 | 0.383 | 0.474 | 0.505 | 0.425 | 0.494 | 1.02 | 1.1 | 0.986 | 1.14 | 1.06 | 0.531 | 0.39 | 0.453 | 0.592 | 0.462 | 0.564 | 0.519 | 0.559 | 0.674 | 0.566
12 | NCI-H727 | 0.417 | 0.408 | 0.355 | – | 0.371 | 0.426 | 0.528 | 0.328 | 0.454 | 0.391 | 0.318 | 0.563 | 0.466 | 0.522 | 0.519 | 0.72 | 0.772 | – | 0.746 | 0.7
13 | NCI-H838 | 0.516 | 0.566 | 0.49 | 0.536 | 0.466 | 1.25 | 1.22 | 1.16 | 1.26 | 1.17 | 0.568 | 0.418 | 0.432 | 0.663 | 0.576 | 0.758 | 0.74 | 0.814 | 0.825 | 0.847
14 | NCI-H1355 | 0.441 | 0.464 | 0.369 | 0.415 | 0.43 | 1.06 | 0.951 | 0.797 | 0.954 | 1 | 0.466 | 0.438 | 0.371 | 0.502 | 0.471 | 0.677 | 0.709 | 0.791 | 0.826 | 0.809
15 | NCI-H1395 | 0.991 | 1.06 | 1.03 | 0.989 | 1.19 | 1.11 | 1.08 | 1.12 | 1.28 | 1.15 | 0.44 | 0.482 | 0.418 | 0.497 | 0.466 | 0.469 | 0.441 | – | 0.501 | 0.443
16 | NCI-H1437 | 0.458 | 0.463 | 0.519 | 0.603 | 0.419 | 1.08 | 1.1 | 1.06 | 1.15 | 1.15 | 0.31 | 0.327 | 0.287 | 0.313 | 0.328 | 0.591 | 0.646 | 0.669 | 0.604 | 0.662
